This note sets out measurements from US20250084094A1 (Vertex Pharmaceuticals Incorporated, priority 2021, published 2025).

The experiment concerns the target T1, APOL1 (Homo sapiens, UniProt O14791).
T1 sequence (O14791 1-398 S342G/I384M): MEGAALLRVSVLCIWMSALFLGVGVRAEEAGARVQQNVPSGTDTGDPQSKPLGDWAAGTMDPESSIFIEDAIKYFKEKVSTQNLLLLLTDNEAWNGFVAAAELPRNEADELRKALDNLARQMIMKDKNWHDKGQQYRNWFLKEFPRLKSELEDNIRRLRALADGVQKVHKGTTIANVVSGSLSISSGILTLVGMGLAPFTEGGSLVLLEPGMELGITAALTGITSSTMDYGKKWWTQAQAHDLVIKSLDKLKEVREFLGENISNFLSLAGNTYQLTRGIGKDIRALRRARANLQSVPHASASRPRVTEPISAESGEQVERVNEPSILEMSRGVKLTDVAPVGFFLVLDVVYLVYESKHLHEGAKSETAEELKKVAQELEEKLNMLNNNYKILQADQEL
Kind of experiment: MultiTox-Fluor Multiplex Cytotoxicity Assay in tet-inducible APOL1 T-REx-HEK293 cells. It counts as cell-based. To be noted: tet-inducible transgenic APOL1 T-REx-HEK293 cell lines, 50 ng/mL tet, 24 hours, ratio of dead to live cells; read-out: IP50 (nM) (i.e., IC50 for cell proliferation). Here is the method: The MultiTox-Fluor Multiplex Cytotoxicity Assay is a single-reagent-addition, homogeneous, fluorescence assay that measures the number of live and dead cells simultaneously in culture wells. The assay measures cell viability and cytotoxicity by detecting two distinct protease activities. The live-cell protease activity is restricted to intact viable cells and is measured using a fluorogenic, cell-permeant peptide glycyl-phenylalanylamino fluorocoumarin (GF-AFC) substrate. The substrate enters intact cells, where it is cleaved to generate a fluorescent signal proportional to the number of living cells. […] A second, cell-impermeant, fluorogenic peptide substrate (bis-AAF-R110 Substrate) is used to measure dead-cell protease that has been released from cells that have lost membrane integrity. A ratio of dead to live cells is used to normalize data.
Briefly, the tet-inducible transgenic APOL1 T-REx-HEK293 cell lines were incubated with 50 ng/mL tet to induce APOL1 in the presence of 3-(2-(4-fluorophenyl)-1H-indol-3-yl)-N-((3S,4R)-4-hydroxy-2-oxopyrrolidin-3-yl)propenamide at 10.03, 3.24, 1.13, 0.356, 0.129, 0.042, 0.129, 0.0045, 0.0015, 0.0005 μM in duplicate for 24 hours in a humidified 37° C. incubator. The MultiTox reagent was added to each well and placed back in the incubator for an additional 30 minutes. The plate was read on the EnVision plate reader. A ratio of dead to live cells was used to normalize, and data was imported, analyzed, and fit using Genedata Screener (Basel, Switzerland) software. Data was normalized using percent of control, no tet (100% viability), and 50 ng/mL tet treated (0% viability),and fit using Smart Fit. The reagents, methods, and complete protocol for the MultiTox assay are described below.
Human embryonic kidney (HEK293) cell lines containing a tet-inducible expression system (T-REx™; Invitrogen, Carlsbad, CA) and Adeno-associated virus site 1 pAAVS1-Puro-APOL1 G0 or pAAVS1-Puro-APOL1 G1 or pAAVS1-Puro-APOL1 G2 Clones G0 DC2.13, Gi DC3.25, and G2 DC4.44 were grown in a T-225 flask at ˜90% confluency in cell growth media (DMEM, 10% Tet-free FBS, 2 mM L-glutamine, 100 Units/mL penicillin-streptomycin, 5 μg/mL blasticidin S HCl, 1 μg/mL puromycin dihydrochloride). Cells were washed with DPBS and then trypsinized to dissociate from the flask. Media was used to quench the trypsin, cells were then pelleted at 200 g and resuspended in fresh cell assay media (DMEM, 2% Tet-free FBS, 2 mM L-glutamine, 100 Units/mL penicillin-streptomycin). Cells were counted and diluted to 1.17×10^6 cells/mL. 20 μL of cells (23,400/well) were dispensed in every well of a 384-well Poly-D-Lysine coated plate using the Multidrop dispenser. The plates were then incubated at room temperature for one hour.
Tetracycline is needed to induce APOL1 expression. 1 mg/mL tet stock in water was diluted to 250 ng/mL (5×) in cell assay media. 60 μL of cell assay media (no tet control) was dispensed in columns 1 and 24, and 60 μL of 5× tet in 384-PP-round bottom plate was dispensed in columns 2 to 23 with the Multidrop dispenser.
Assay ready plates from the Global Compound Archive were ordered using template 384_APOLICell_DR10n2_50 uM_v3. Compounds were dispensed at 200 nL in DMSO. The final top concentration was 10 μM with a 10 point 3-fold dilution in duplicate in the MultiTox assay.
20 μL was transferred from the 5× tet plate to the ARP and mixed, then 5 μL of 5× tet and the compounds were transferred to the cell plate and mixed using the Bravo. The cell plate was placed in the humidified 37° C. 5% CO2 incubator for 24 hours.
The MultiTox-Fluor Multiplex Cytotoxicity Assay was performed in accordance with the manufacturer's protocol. After cells were incubated with tet and compound for 24 hours, 25 μL of 1x MultiTox reagent was added to each well using the Multidrop dispenser; the plates were placed on a plate shaker (600 rpm) for 2 minutes, then centrifuged briefly and placed back in the 37° C. incubator for 30 minutes. […]
For `CC(C)c1ccc2c(c1)CCO[C@@]21C[C@@H](c2cn(C)nn2)N[C@@H](C)C1` [Compound 18], the IC50 was less than 50 nM.
The same measure for `C[C@H]1C[C@@]2(C[C@@H](c3cn(C)nn3)N1)OC[C@@H](O)c1cc(Cl)ccc12` [Compound 25]: less than 50 nM; for `CCc1ccc2c(c1)CCO[C@@]21C[C@@H](c2cn(C)nn2)N[C@@H](C)C1` [Compound 17]: less than 50 nM.
Consider `C[C@H]1C[C@@]2(C[C@@H](c3cn(C)nn3)N1)OCCc1ccccc12` [Compound 12], for which the IC50 is less than 50 nM.
On to `C[C@H]1C[C@@]2(C[C@@H](c3cn(C)nn3)N1)OCCc1ccc(C#N)cc12` [Compound 11], for which the IC50 was 50 to 500 nM.
For the molecule `C[C@H]1C[C@@]2(C[C@@H](c3cn(C)nn3)N1)OCCc1cc(C#N)ccc12` [Compound 21], the IC50 lay in the range of 50 to 500 nM.
The same measure for `C[C@H]1C[C@]2(C[C@@H](c3cn(C)nn3)N1)C(=O)Nc1ccccc12` [Compound 31, (2′S,3R,6′S)-2′-methyl-6′-(1-methyltriazol-4-yl)spiro[indoline-3,4′-piperidine]-2-one]: more than 500 nM; for `CCc1ccc2c(c1)[C@]1(C[C@@H](c3cn(C)nn3)N[C@@H](C)C1)OCC2` [Compound 13, (1S,2′S,6′S)-7-ethyl-2′-methyl-6′-(1-methyl-1H-1,2,3-triazol-4-yl)spiro[isochromane-1,4′-piperidine]]: less than 50 nM; for `COC(=O)c1ccc2c(c1)CCO[C@@]21C[C@@H](c2cn(C)nn2)N[C@@H](C)C1` [Compound 19]: more than 500 nM.
Turning to `C[C@H]1C[C@@]2(C[C@@H](c3cn(C)nn3)N1)OC[C@H](O)c1cc(C(F)(F)F)ccc12` [Compound 28, (1S,2′S,4R,6′S)-2′-methyl-6′-(1-methyl-1H-1,2,3-triazol-4-yl)-6-(trifluoromethyl)spiro[isochromane-1,4′-piperidin]-4-ol], the IC50 is less than 50 nM.
